Results from paper PMC7940618, “Specific inhibition of the Survivin–CRM1 interaction by peptide-modified molecular tweezers” (Nature Communications, 2021).
Values joined by “and” are separate entries in the source; they are usually repeats but may differ in a detail not shown here. Identical values can stand only once. Like-named read-outs stand apart in the source and are kept apart here. Peptide text beside a SMILES is read from it.

What was measured:
Format in all cases: binding
Survivin120 K90/103T = target: T1, Survivin120 K90/103T (Homo sapiens, UniProt O15392, K103T/K90T); assay: ITC titration of tweezers with Survivin120 K90/103T mutant
T1 construct: the only published NMR structure originated from a truncated Survivin (aa 1-120) with improved solubility; GST with PreScission site (N); made in house; host or cells: Escherichia coli soluBL21
T1 sequence (O15392 1-120 K90T/K103T): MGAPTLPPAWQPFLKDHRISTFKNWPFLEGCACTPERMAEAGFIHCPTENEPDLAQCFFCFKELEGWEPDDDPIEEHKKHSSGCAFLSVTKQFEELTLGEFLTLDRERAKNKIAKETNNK
From the text: If the tweezer-based inhibitors indeed bind to lysines/arginines flanking the NES (K90, K91, K103, R106), their mutation to, e.g., threonine, should abolish the observed effects. For this reason, we generated double and triple Survivin120 mutants lacking these putative tweezer anchor points. Unfortunately, most double mutants and especially the triple mutants were unfolded as evidenced by 1D ^1H NMR (SI6); finally, the correctly folded double threonine mutant Survivin120 K90/103T was chosen for further investigation. […] Next, binding of FAM-labeled tweezers (SI3) to either Survivin120 wildtype or the K90/103T mutant was studied by fluorescence anisotropy (Fig. 7d–f). […] We conclude that lysines 90 and 103 are indeed essential for efficient tweezer binding.
(§1) ITC was performed with a MicroCal iTC200 from Malvern Panalytical in PBS, pH 7.4 at 25 °C with molecular tweezers in the cell and Survivin120 in the titration syringe. The protein was dialyzed overnight at 4 °C against the PBS buffer. Ligands were dissolved in the respective dialysis buffer. Then, 300 µM TW were titrated with 300 µM Survivin120 WT or 321 µM Survivin120 K90/103T. Then, 100 µM TW-ELTL, TW-ELTLGEFL, or TW-LFEEGLLT was titrated with 1.2 mM Survivin120 WT or 2.5 mM Survivin120 K90/103T. For reverse titrations, either 33.3 or 34.4 µM Survivin120 in the cell was titrated with 5 mM TW or TW-ELTL in the syringe, respectively. All titrations were performed in PBS, pH 7.4 at 25 °C. Then, 1.5 μL injections were used with 120 s spacing time between injections. The injection rate was set to 0.5 µL/s and the reference power was 5 µcal/s. ITC thermograms were fitted to a one set of sites model with the software Origin (v7.0552) provided with the instrument. Heat of dilution was subtracted as constant from each data point.
(§2) ITC thermograms were fitted to a one set of sites model with the software Origin provided with the instrument. Heat of dilution was subtracted as constant from each data point. From three independent experiments (n = 3), one representative example was depicted, and thermodynamic data were derived thereof. For pull-down experiments, only the representative quantification of the depicted western blot is shown. […] Fluorescence anisotropy graphs were generated with GraphPad Prism 5.0. Depicted error bars represent the standard deviation of three independent titrations.

[1] = target: T2, GST-Survivin120-K90/103T–CRM1 interaction (Homo sapiens, UniProt O15392, K103T/K90T); assay: Pull-down with GST-Survivin120-K90/103T bait, CRM1 and RanQ69L; details: for CRM1: Peak area determined with ImageJ / CRM1 intensity_normalised on GST-Surv intensity (samples 1-14) / CRM1: Control w/o GST-Survivin subtracted (sample 16 or 23): CRM1 band; for CRM1: Peak area determined with ImageJ / CRM1 intensity_normalised on GST-Surv intensity (samples 1-14) / CRM1: Control w/o GST-Survivin subtracted (sample 16 or 23) / CRM1 intensity_normalised on GST-Surv intensity (samples 1-14) and CRM1 intensity w/o incubation (sample 15 or 22): samples 22-28 (K90/103T); for CRM1: Control w/o GST-Survivin subtracted (sample 16 or 23): sample 23 subtracted; for GST-Surv: Peak area determined with ImageJ / GST-Surv: Control w/o GST-Survivin subtracted (sample 2 or 9): GST-Surv bait band; for GST-Surv: Peak area determined with ImageJ: samples 8-14 (K90/103T according to the summary in r39-r41); for GST-Surv: Control w/o GST-Survivin subtracted (sample 2 or 9): samples 8-14 (K90/103T), sample 9 subtracted; for Normalised CRM1 intensity, summary of replicates I and II: K90/103T, w/o tweezer = 100, replicates I and II
T2 construct: the only published NMR structure originated from a truncated Survivin (aa 1-120) with improved solubility; made in house; host or cells: Escherichia coli soluBL21
T2 sequence (O15392 1-120 K90T/K103T): as above
Experimental: Next, we investigated whether tweezer inhibition of the export complex assembly is compromised upon lysine mutations near the NES. Therefore, pull-down experiments were performed with recombinant GST-tagged Survivin120 wildtype and K90/103T as bait proteins, tweezers, recombinant CRM1 and RanQ69L (Fig. 7g). Controls lacking the Survivin baits were included, as well as isolated peptides without tweezer (Fig. 7h). […] However, for the double lysine mutant GST-Survivin120-K90/103T even the tweezer conjugates lost most of their inhibitory power toward the essential Survivin–CRM1 interaction.
All pull-down assays were performed at room temperature in pull-down buffer (PBS, pH 7.4, 1 mM DTT, 0.02 Triton X-100). GST fusion proteins were immobilized on 50 μL GSH-coated Sepharose 4B beads from GE Healthcare. The beads were prior equilibrated and blocked with 500 μL pull-down blocking buffer (PBS, pH 7.4, 1 (w/v) BSA, 1 mM DTT, 0.02 (v/v) Triton X-100) for 1 h to prevent unspecific binding.
For analysis of the effective inhibitory tweezer concentration, 200 μg 293T lysate with overexpressed Survivin142-HA was preincubated without ligand or with different concentrations (10 nM to 200 μM) of unmodified tweezer TW, TW-ELTL, TW-ELTLGEFL, or TW-LFEEGLLT for 1 h and then mixed with 35 μg GST-CRM1, 55 μg RanQ69L, and 2 mM dGTP. GSH-beads were incubated with this protein mixture for 2 h under rotation. For analysis of tweezer specificity, 40 μg GST-Survivin120 or GST-Survivin120-K90/103T point mutant was pre-bound to equilibrated GSH-beads in 500 μL pull-down buffer, containing additionally either no ligand or 50 μM unmodified tweezer TW, TW-ELTL, TW-ELTLGEFL, or peptides ELTL and ELTLGEFL, for 1 h under rotation. After washing and blocking, GSH-beads were incubated with a protein mixture consisting of 2 mM dGTP, 50 μg CRM1, and 50 μg RanQ69L for 2 h under rotation.
Samples of input and beads taken during pull-down experiments were ran on 12.5 SDS gels and transferred onto 0.2 µM PVDF membranes (Amersham Hybond P 0.2) using a PerfectBlue™ tank electro blotter (Peqlab) at 350 mA for 150 min. Membranes were blocked for 1 h using 5% milk powder in TBS buffer containing 0.1% Tween-20. Next, membranes were incubated in primary antibodies against HA (anti-HA, mouse monoclonal, BioLegend, Covance MMS-101R, 1:1,000), GST (anti-GST, mouse monoclonal, Santa Cruz Biotechnology Inc., sc-57753, 1:1000) or CRM1 (anti-CRM1, rabbit polyclonal, Novus Biologicals Ltd., NB100-79802, 1:10,000) overnight at 4 °C. Secondary horseradish peroxidase (HRP)-conjugated antibody (anti-mouse IgG-HRP, sheep, GE Healthcare, NXA931 or anti-rabbit IgG-HRP, donkey, GE Healthcare, NA934) was then added (1:10,000) for 1 h at room temperature. Chemiluminescence was detected and imaged using the Pierce ECL Plus Western Blotting Substrate kit (Thermo Fisher Scientific) and Chemidoc system (Bio-Rad) or film processor Cawomat 2000 IR (CAWO). Western blots were analyzed by densitometric analysis with ImageJ version 1.52p (U.S. National Institutes of Health), measuring the mean gray intensity of protein bands. Uncropped and unprocessed scans of western blots are deposited in the Source Data file.

Survivin120 = target: T3, Survivin120 (Homo sapiens, UniProt O15392); assay: ITC titration of tweezers with Survivin120 wildtype; details: ITC, Survivin120 WT; for Kd: PBS pH 7.4, 25 °C, one set of sites model, mean ± SEM of fit
T3 construct: the only published NMR structure originated from a truncated Survivin (aa 1-120) with improved solubility; GST with PreScission site (N); made in house; host or cells: Escherichia coli soluBL21
T3 sequence (O15392 1-120): as the sequence (O15392 1-120 K90T/K103T) above, with T90K, T103K counted along it
Experimental: The interaction between the tweezers and Survivin was studied by isothermal titration calorimetry (ITC) and NMR spectroscopy. So far, the only published NMR structure originated from a truncated Survivin (aa 1-120) with improved solubility. […] Since the truncated construct still contains all relevant parts of the protein and gives excellent NMR spectra (SI5), we chose it for all our in vitro experiments and denote it as Survivin120 in the following results.
as §1, §2

[2] = fraction of sample 22 (w/o tweezer)

| Compound | ΔH (Survivin120 K90/103T; ITC, Survivin120 K90/103T) | Kd (Survivin120 K90/103T; ITC, Survivin120 K90/103T, PBS pH 7.4, 25 °C, one set of sites model, read-out: KD) | CRM1: Peak area determined with ImageJ [1] | CRM1 intensity_normalised on GST-Surv intensity (samples 1-14) [1] | CRM1: Control w/o GST-Survivin subtracted (sample 16 or 23) [1] | GST-Surv: Peak area determined with ImageJ [1] | GST-Surv: Control w/o GST-Survivin subtracted (sample 2 or 9) [1] | Normalised CRM1 intensity, summary of replicates I and II [1] | CRM1 intensity_normalised on GST-Surv intensity (samples 1-14) and CRM1 intensity w/o incubation (sample 15 or 22) [1, 2] | CRM1 intensity_normalised on GST-Surv intensity (samples 1-14) and CRM1 intensity w/o incubation (sample 15 or 22) ([1]; w/o tweezer = 100) | -TΔS (Survivin120) | ΔG (Survivin120) | ΔH (Survivin120) | Kd (Survivin120) | Kd (Survivin120 K90/103T) |
| --- | --- | --- | --- | --- | --- | --- | --- | --- | --- | --- | --- | --- | --- | --- | --- |
| O=P(O)(O)Oc1c2c(c(OP(=O)(O)O)c3c1C1CC3c3cc4c(cc31)C1CC4c3ccccc31)C1CC2c2cc3c(cc21)C1CC3c2ccccc21 [TW, reference compound] | -0.6 kcal | 49 ± 5 µM | 39038.4 | 0.5728 | 34329.1 | 62533.1 | 59934 | 90.4067% | 0.9041 | 90.4067% | -4.7 kcal | -6.0 kcal | -1.3 kcal | 38 µM | – |
| CC(C)C[C@H](NC(=O)[C@H](Cc1ccccc1)NC(=O)[C@H](CCC(=O)O)NC(=O)CNC(=O)[C@H](CC(C)C)NC(=O)[C@@H](NC(=O)[C@H](CC(C)C)NC(=O)[C@H](CCC(=O)O)NC(=O)Cn1cc(CCOP(=O)(O)Oc2c3c(c(OP(=O)(O)O)c4c2C2CC4c4cc5c(cc42)C2CC5c4ccccc42)C2CC3c3cc4c(cc32)C2CC4c3ccccc32)nn1)[C@@H](C)O)C(=O)O [TW-ELTLGEFL] (HELM PEPTIDE1{[O=C(Cn1cc(CCOP(=O)(O)Oc2c3c(c(OP(=O)(O)O)c4c2C2CC4c4cc5c(cc42)C2CC5c4ccccc42)C2CC3c3cc4c(cc32)C2CC4c3ccccc32)nn1)[*:2]].E.L.T.L.G.E.F.L}$$$$V2.0) | – | – | – | – | – | – | – | 109.825% and 111.087% | – | 109.825% | – | – | – | 19 µM | 36 ± 10 µM |
| CC(C)C[C@H](NC(=O)[C@@H](NC(=O)[C@H](CC(C)C)NC(=O)[C@H](CCC(=O)O)NC(=O)Cn1cc(CCOP(=O)(O)Oc2c3c(c(OP(=O)(O)O)c4c2[C@H]2C[C@@H]4c4cc5c(cc42)[C@H]2C[C@@H]5c4ccccc42)[C@H]2C[C@@H]3c3cc4c(cc32)[C@H]2C[C@@H]4c3ccccc32)nn1)[C@@H](C)O)C(=O)O [TW-ELTL] | -1.3 kcal | – | 11197.5 | 0.3807 | 6488.31 | 19643.8 | 17044.7 | 60.0833% | 0.6008 | 60.0833% | -3.8 kcal | -6.3 kcal | -2.5 kcal | 24 µM | 50 ± 10 µM |
